Data taken from patent US9133181B2, “Substituted 6-(4-hydroxy-phenyl)-1H-pyrazolo[3,4-b]pyridine derivatives as kinase inhibitors” (SANOFI, priority 2012, dated 2015).

Biological target: T1, human full-length recombinant PKC βII (Homo sapiens, UniProt P05771)
T1 construct: Active human full-length recombinant PKC βII; purchased Invitrogen GmbH, Darmstadt, Germany
Assay: Determination of PKC βII inhibition (Caliper mobility shift kinase assay)
Assay type: biochemical
Conditions: final compound concentration 1.14 μM (±0.15 μM); 60 min incubation at 32° C.
Procedure: Determination of PKC βII Inhibition
PKC βII inhibition was determined according to the following protocol:
Active human full-length recombinant PKC βII and the peptide substrate, Fluorescein-RFARKGSLRQKNV, were purchased from Invitrogen GmbH, Darmstadt, Germany. Adenosine-5′-triphosphate (ATP), bovine serum albumine (BSA), dimethylsulphoxide (DMSO), 4-(2-hydroxyethyl)piperazine-1-ethanesulfonic acid (Hepes), Triton X-100, 1,2-Dioleoyl-sn-glycerol (DAG), L-α-Phosphatidyl-L-serine (PS), calcium chloride (CaCl2), and Pluronic F-68 were purchased from Sigma-Aldrich, Munich, Germany. Magnesium chloride, 1 M sodium hydroxide solution, 1M hydrochloric acid solution and EDTA were obtained from Merck Biosciences, Darmstadt, Germany.
Test compounds were diluted to three times the test concentration in buffer 1 (30 mM Hepes-NaOH, pH 7.4, 0.01% Pluronic F-68 and 3% (v/v) DMSO). The […] enzyme was diluted to a concentration of 30 ng/ml in buffer 2 (30 mM Hepes-NaOH, pH 7.4, 15 mM MgCl2, 150 μM CaCl2, 150 μg/ml PS, 60 μg/ml DAG, and 0.045% (w/v) Triton X-100). The peptide substrate and ATP were diluted to concentrations of 3 μM and 120 μM, respectively, in buffer 2. Two μl of the compound solution were mixed with 2 μl of the diluted enzyme in a 384-well small volume microtiter plate (Greiner, Bio-One, Frickenhausen, Germany), and the kinase reaction was initiated by addition of 2 μl of the solution containing peptide substrate and ATP. After 60 min incubation at 32° C., the reaction was stopped by addition of 20 μl of a solution containing 130 mM Hepes-NaOH, pH 7.4, 0.0195% (v/v) Brij-35, 6.5 mM EDTA, 0.13% chip coating reagent 3 (Caliper Lifescience Inc, Hopkinton, Mass.) and 6.5% (v/v) DMSO. Phosphorylation of the substrate peptide was then detected on a Caliper 3000 instrument essentially as described by Pommereau et al (J. Biomol. Screening 2004, 9(5), 409-416). Separation conditions were as follows: Pressure −0.8 psi, upstream voltage −3000 V, downstream voltage −800 V. Positive controls (buffer 1 instead of compound) and negative controls (buffer 1 instead of compound and buffer 2 instead of kinase solution) were run in parallel on each plate. Fractional turnover (R) was determined as the height of the peak of the phosphorylated peptide product divided by the sum of the unphosphorylated substrate and phosphorylated product peak heights. Percent-inhibition values for the test compounds were determined using the formula % Inhibition=100*(1−(Rcompound−Rnegative control)/(Rpositive control−Rnegative control).
In the following table % inhibition values observed with example compounds at a final concentration of 1.14 μM (±0.15 μM) are listed: […]

T1 sequence (P05771 1-673 isoform P05771-2): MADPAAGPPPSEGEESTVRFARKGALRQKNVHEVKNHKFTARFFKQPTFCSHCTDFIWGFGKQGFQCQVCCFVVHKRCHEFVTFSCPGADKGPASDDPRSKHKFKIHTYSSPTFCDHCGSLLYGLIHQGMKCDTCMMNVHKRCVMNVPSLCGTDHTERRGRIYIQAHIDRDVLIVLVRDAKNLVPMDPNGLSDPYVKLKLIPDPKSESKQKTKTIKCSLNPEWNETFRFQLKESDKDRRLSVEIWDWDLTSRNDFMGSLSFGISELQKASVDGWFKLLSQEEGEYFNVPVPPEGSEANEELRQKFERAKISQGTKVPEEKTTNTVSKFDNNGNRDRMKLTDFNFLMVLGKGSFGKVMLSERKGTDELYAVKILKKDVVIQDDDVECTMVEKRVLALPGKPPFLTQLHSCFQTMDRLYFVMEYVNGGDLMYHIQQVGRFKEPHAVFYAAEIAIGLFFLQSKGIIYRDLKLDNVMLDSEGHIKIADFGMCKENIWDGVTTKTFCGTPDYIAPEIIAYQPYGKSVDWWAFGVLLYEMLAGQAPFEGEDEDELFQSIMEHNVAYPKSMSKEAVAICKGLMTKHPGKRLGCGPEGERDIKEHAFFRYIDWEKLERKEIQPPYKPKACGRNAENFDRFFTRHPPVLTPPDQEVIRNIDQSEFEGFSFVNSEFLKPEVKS

Q: Which inhibition at 1.14 µM does the source give for `Cc1n[nH]c2nc(-c3ccc(O)cc3F)cc(CN3CC(C)(C)N(CCC(F)(F)F)CC3(C)C)c12` [Example 65, 3-Fluoro-4-{3-methyl-4-[2,2,5,5-tetramethyl-4-(3,3,3-trifluoro-propyl)-piperazin-1-ylmethyl]-1H-pyrazolo[3,4-b]pyridin-6-yl}-phenol] here?
A: 88%

Q: Which inhibition at 1.14 µM does the source give for `CCC1CNC(C)(C)CN1Cc1cc(-c2ccc(O)cc2)nc2[nH]nc(C)c12` (stereo not drawn) [Example 53, 4-[4-(2-Ethyl-5,5-dimethyl-piperazin-1-ylmethyl)-3-methyl-1H-pyrazolo[3,4-b]pyridin-6-yl]-phenol] here?
A: 99%

Q: How did the inhibition at 1.14 µM turn out when `Cc1n[nH]c2nc(-c3ccc(O)cc3F)cc(CN3CC(C)NCC3C(F)(F)F)c12` (stereo not drawn) [Example 19, 3-Fluoro-4-[3-methyl-4-(5-methyl-2-trifluoromethyl-piperazin-1-ylmethyl)-1H-pyrazolo[3,4-b]pyridin-6-yl]-phenol] was run?
A: 99%

Q: With `CCC1(CC)CNC(C)(C)CN1Cc1cc(-c2ccc(O)cc2)nc2[nH]nc(C)c12` [Example 51, 4-[4-(2,2-Diethyl-5,5-dimethyl-piperazin-1-ylmethyl)-3-methyl-1H-pyrazolo[3,4-b]pyridin-6-yl]-phenol] as the compound, how does the inhibition at 1.14 µM read?
A: 98%

Q: How did the inhibition at 1.14 µM turn out when `Cc1n[nH]c2nc(-c3ccc(O)cc3F)cc(CN3CCCC(C)(N)C3)c12` (stereo not drawn) [Example 24, 4-[4-(3-Amino-3-methyl-piperidin-1-ylmethyl)-3-methyl-1H-pyrazolo[3,4-b]pyridin-6-yl]-3-fluoro-phenol] was run?
A: 94%

Q: For `Cc1n[nH]c2nc(-c3ccc(O)cc3F)cc(CN3C[C@@H](C(C)C)NCC3(C)C)c12` [Example 130, 3-Fluoro-4-[4-((R)-5-isopropyl-2,2-dimethyl-piperazin-1-ylmethyl)-3-methyl-1H-pyrazolo[3,4-b]pyridin-6-yl]-phenol], which inhibition at 1.14 µM is on record?
A: 98%

Q: `Cc1n[nH]c2nc(-c3ccc(O)cc3)cc(CN(C)C3CCNC3)c12` (stereo not drawn) [Example 94, 4-{3-Methyl-4-[(methyl-pyrrolidin-3-yl-amino)-methyl]-1H-pyrazolo[3,4-b]pyridin-6-yl}-phenol] was tested. Which inhibition at 1.14 µM did it give?
A: 92%

Q: With `Cc1n[nH]c2nc(-c3ccc(O)cc3F)cc(CN3CCCNC(C)C3)c12` (stereo not drawn) [Example 25, 3-Fluoro-4-[3-methyl-4-(3-methyl-[1,4]diazepan-1-ylmethyl)-1H-pyrazolo[3,4-b]pyridin-6-yl]-phenol] as the compound, how does the inhibition at 1.14 µM read?
A: 102%

Q: How did the inhibition at 1.14 µM turn out when `Cc1n[nH]c2nc(-c3ccc(O)cc3F)cc(CN3CCNCC34CC4)c12` [Example 14, 4-[4-(4,7-Diaza-spiro[2.5]oct-4-ylmethyl)-3-methyl-1H-pyrazolo[3,4-b]pyridin-6-yl]-3-fluoro-phenol] was run?
A: 98%

Q: How did the inhibition at 1.14 µM turn out when `CCc1n[nH]c2nc(-c3ccc(O)cc3)cc(CN3CCNCC3)c12` [Example 96, 4-(3-Ethyl-4-piperazin-1-ylmethyl-1H-pyrazolo[3,4-b]pyridin-6-yl)-phenol] was run?
A: 74%

Q: Which inhibition at 1.14 µM does the source give for `Cc1n[nH]c2nc(-c3ccc(O)cc3F)cc(CN3CC(C)(C)N(CCC4CCOCC4)CC3(C)C)c12` [Example 68, 3-Fluoro-4-(3-methyl-4-{2,2,5,5-tetramethyl-4-[2-(tetrahydro-pyran-4-yl)-ethyl]-piperazin-1-ylmethyl}-1H-pyrazolo[3,4-b]pyridin-6-yl)-phenol] here?
A: 101%

Q: For `Cc1n[nH]c2nc(-c3ccc(O)cc3F)cc(CN3CC(C)(C)N(C(=O)C4CCOC4)CC3(C)C)c12` (stereo not drawn) [Example 77, {4-[6-(2-Fluoro-4-hydroxy-phenyl)-3-methyl-1H-pyrazolo[3,4-b]pyridin-4-ylmethyl]-2,2,5,5-tetramethyl-piperazin-1-yl}-(tetrahydro-furan-3-yl)-methanone], which inhibition at 1.14 µM is on record?
A: 98%

Q: Which inhibition at 1.14 µM does the source give for `Cc1n[nH]c2nc(-c3ccc(O)cc3F)cc(CN3C[C@H](C)NC[C@@H]3C(F)(F)F)c12` [Example 151, 3-Fluoro-4-[3-methyl-4-((2R,5S)-5-methyl-2-trifluoromethyl-piperazin-1-ylmethyl)-1H-pyrazolo[3,4-b]pyridin-6-yl]-phenol] here?
A: 90%

Q: How did the inhibition at 1.14 µM turn out when `Cc1n[nH]c2nc(-c3ccc(O)cc3)cc(CN3CC(C)(C)N(C)CC3(C)C)c12` [Example 84, 4-[3-Methyl-4-(2,2,4,5,5-pentamethyl-piperazin-1-ylmethyl)-1H-pyrazolo[3,4-b]pyridin-6-yl]-phenol] was run?
A: 98%

Q: Which inhibition at 1.14 µM does the source give for `CCC1(CC)CNC(C)(C)CN1Cc1cc(-c2ccc(O)cc2F)nc2[nH]nc(C)c12` [Example 32, 4-[4-(2,2-Diethyl-5,5-dimethyl-piperazin-1-ylmethyl)-3-methyl-1H-pyrazolo[3,4-b]pyridin-6-yl]-3-fluoro-phenol] here?
A: 101%

Q: `Cc1n[nH]c2nc(-c3ccc(O)cc3)cc(CN3CC(C)N(Cc4cccnc4)CC3(C)C)c12` (stereo not drawn) [Example 61, 4-[3-Methyl-4-(2,2,5-trimethyl-4-pyridin-3-ylmethyl-piperazin-1-ylmethyl)-1H-pyrazolo[3,4-b]pyridin-6-yl]-phenol] was tested. Which inhibition at 1.14 µM did it give?
A: 84%

Q: `Cc1n[nH]c2nc(-c3ccc(O)cc3F)cc(CN3C[C@H](C)NCC34CCCC4)c12` [Example 127, 3-Fluoro-4-[3-methyl-4-((S)-8-methyl-6,9-diaza-spiro[4.5]dec-6-ylmethyl)-1H-pyrazolo[3,4-b]pyridin-6-yl]-phenol] was tested. Which inhibition at 1.14 µM did it give?
A: 87%

Q: `CCC1(C)CNC(C)(C)CN1Cc1cc(-c2ccc(O)cc2)nc2[nH]nc(C)c12` (stereo not drawn) [Example 50, 4-[4-(2-Ethyl-2,5,5-trimethyl-piperazin-1-ylmethyl)-3-methyl-1H-pyrazolo[3,4-b]pyridin-6-yl]-phenol] was tested. Which inhibition at 1.14 µM did it give?
A: 96%

Q: How did the inhibition at 1.14 µM turn out when `Cc1n[nH]c2nc(-c3ccc(O)cc3F)cc(CN3CCNCC3)c12` [Example 13, 3-Fluoro-4-(3-methyl-4-piperazin-1-ylmethyl-1H-pyrazolo[3,4-b]pyridin-6-yl)-phenol] was run?
A: 81%

Q: Which inhibition at 1.14 µM does the source give for `Cc1n[nH]c2nc(-c3ccc(O)cc3F)cc(CN3CCNCC3c3ccc(F)cc3)c12` (stereo not drawn) [Example 4, 3-Fluoro-4-{4-[2-(4-fluoro-phenyl)-piperazin-1-ylmethyl]-3-methyl-1H-pyrazolo[3,4-b]pyridin-6-yl}-phenol] here?
A: 94%

Q: For `Cc1n[nH]c2nc(-c3ccc(O)cc3)cc(CNC3CCNCC3(C)C)c12` (stereo not drawn) [Example 60, 4-{4-[(3,3-Dimethyl-piperidin-4-ylamino)-methyl]-3-methyl-1H-pyrazolo[3,4-b]pyridin-6-yl}-phenol], which inhibition at 1.14 µM is on record?
A: 92%

Q: For `COCC(=O)NC1(C)CCCN(Cc2cc(-c3ccc(O)cc3F)nc3[nH]nc(C)c23)C1` (stereo not drawn) [Example 81, N-{1-[6-(2-Fluoro-4-hydroxy-phenyl)-3-methyl-1H-pyrazolo[3,4-b]pyridin-4-ylmethyl]-3-methyl-piperidin-3-yl}-2-methoxy-acetamide], which inhibition at 1.14 µM is on record?
A: 97%

Q: For `Cc1n[nH]c2nc(-c3ccc(O)cc3F)cc(CN3C[C@@H](C)NC[C@@H]3C(F)(F)F)c12` [Example 152, 3-Fluoro-4-[3-methyl-4-((2R,5R)-5-methyl-2-trifluoromethyl-piperazin-1-ylmethyl)-1H-pyrazolo[3,4-b]pyridin-6-yl]-phenol], which inhibition at 1.14 µM is on record?
A: 93%

Q: `Cc1n[nH]c2nc(-c3ccc(O)cc3F)cc(C(C)N3C[C@@H](C)N[C@@H](C)C3)c12` (stereo partly drawn) [Example 98, 4-{4-[1-((3S,5R)-3,5-Dimethyl-piperazin-1-yl)-ethyl]-3-methyl-1H-pyrazolo[3,4-b]pyridin-6-yl}-3-fluoro-phenol] was tested. Which inhibition at 1.14 µM did it give?
A: 87%

Q: How did the inhibition at 1.14 µM turn out when `CCNC(=O)N1CC(C)(C)N(Cc2cc(-c3ccc(O)cc3)nc3[nH]nc(C)c23)CC1(C)C` [Example 88, 4-[6-(4-Hydroxy-phenyl)-3-methyl-1H-pyrazolo[3,4-b]pyridin-4-ylmethyl]-2,2,5,5-tetramethyl-piperazine-1-carboxylic acid ethylamide] was run?
A: 89%

Q: For `COCC(=O)N1CC(C)(C)N(Cc2cc(-c3ccc(O)cc3F)nc3[nH]nc(C)c23)CC1(C)C` [Example 75, 1-{4-[6-(2-Fluoro-4-hydroxy-phenyl)-3-methyl-1H-pyrazolo[3,4-b]pyridin-4-ylmethyl]-2,2,5,5-tetramethyl-piperazin-1-yl}-2-methoxy-ethanone], which inhibition at 1.14 µM is on record?
A: 96%

Q: How did the inhibition at 1.14 µM turn out when `Cc1n[nH]c2nc(-c3ccc(O)cc3F)cc(CN3CC(C)(C)NCC34CCCC4)c12` [Example 15, 4-[4-(8,8-Dimethyl-6,9-diaza-spiro[4.5]dec-6-ylmethyl)-3-methyl-1H-pyrazolo[3,4-b]pyridin-6-yl]-3-fluoro-phenol] was run?
A: 96%
